Data taken from ChEMBL document CHEMBL1201862, “PubChem BioAssay data set” (2004).
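48-hour exposure; five concentrations; linearly interpolated endpoints. Here, GI50 denotes the concentration required for 50% inhibition of growth.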 Calls of active or inactive are those of the source. Cut-off read from the data, not from the text of the source: active = GI50 up to about 1.1 µM and inactive = higher.

Experiments:
Test in all cases: DTP human tumour cell line panel, 48 h
[1] = test system: ACHN
[2] = test system: DU-145
[3] = test system: Hs-578T
[4] = test system: IGROV-1
[5] = test system: KM12
[6] = test system: NCI-H460
[7] = test system: NCI/ADR-RES
[8] = test system: OVCAR-3
[9] = test system: OVCAR-8
[10] = test system: PC-3
[11] = test system: SF-268
[12] = test system: SK-MEL-28
[13] = test system: SNB-19
[14] = test system: SW-620
[15] = test system: TK-10
[16] = test system: MCF7
[17] = test system: SF-539
[18] = test system: SK-OV-3
[19] = test system: RPMI-8226

| Structure (SMILES) | GI50 [1] | GI50 [2] | GI50 [3] | GI50 [4] | GI50 [5] | GI50 [6] | GI50 [7] | GI50 [8] | GI50 [9] | GI50 [10] | GI50 [11] | GI50 [12] | GI50 [13] | GI50 [14] | GI50 [15] | GI50 [16] | GI50 [17] | GI50 [18] | GI50 [19] |
| --- | --- | --- | --- | --- | --- | --- | --- | --- | --- | --- | --- | --- | --- | --- | --- | --- | --- | --- | --- |
| NC(CCc1ccccc1)(C(=O)O)c1ccccc1 (configuration not stated) | > 100 µM (inactive) | > 100 µM (inactive) | > 100 µM (inactive) | > 100 µM (inactive) | > 100 µM (inactive) | > 100 µM (inactive) | > 100 µM (inactive) | > 100 µM (inactive) | > 100 µM (inactive) | > 100 µM (inactive) | > 100 µM (inactive) | > 100 µM (inactive) | > 100 µM (inactive) | > 100 µM (inactive) | > 100 µM (inactive) |  |  |  |  |
| Cc1cccc2c(N)c3cccc(C(=O)NCC[N+](C)(C)Cc4sccc4[N+](=O)[O-])c3nc12 | 3.78 µM (inactive) | 23.8 µM (inactive) | 1.11 µM (active) | 2.71 µM (inactive) | 9.68 µM (inactive) |  | 51.4 µM (inactive) | 19.5 µM (inactive) | 9.84 µM (inactive) | 11.9 µM (inactive) | 19 µM (inactive) | 37.3 µM (inactive) | 6.59 µM (inactive) | 5.86 µM (inactive) | 25.9 µM (inactive) | 2.04 µM (inactive) | 2.83 µM (inactive) | 10.8 µM (inactive) |  |
| O=C(Nc1ccc2ccccc2c1)c1cc2cc(CCl)ccc2oc1=O | > 100 µM (inactive) | > 100 µM (inactive) | 1.55 µM (inactive) | > 100 µM (inactive) | > 100 µM (inactive) | > 100 µM (inactive) | > 100 µM (inactive) | > 100 µM (inactive) | > 100 µM (inactive) | > 100 µM (inactive) | 14.2 µM (inactive) | > 100 µM (inactive) | 27.6 µM (inactive) | > 100 µM (inactive) | 33.2 µM (inactive) | 38.5 µM (inactive) |  | 38.5 µM (inactive) | > 100 µM (inactive) |
| COc1ccc(-n2cnn3c(=O)c4cn[nH]c4nc23)cc1 | > 10 µM (inactive) | > 10 µM (inactive) | > 10 µM (inactive) |  | > 10 µM (inactive) | > 10 µM (inactive) |  | > 10 µM (inactive) | > 10 µM (inactive) | > 10 µM (inactive) | > 10 µM (inactive) |  | > 10 µM (inactive) |  | > 10 µM (inactive) | > 10 µM (inactive) | > 10 µM (inactive) | 1.49 µM (inactive) |  |
| Cn1c(=O)c2c(nc3n(Cc4ccccc4)c(=O)c(Br)cn23)n(C)c1=O | > 100 µM (inactive) | > 100 µM (inactive) | > 100 µM (inactive) | > 100 µM (inactive) | > 100 µM (inactive) | > 100 µM (inactive) | > 100 µM (inactive) | > 100 µM (inactive) | > 100 µM (inactive) | > 100 µM (inactive) | > 100 µM (inactive) | > 100 µM (inactive) | > 100 µM (inactive) | > 100 µM (inactive) | > 100 µM (inactive) | > 100 µM (inactive) | > 100 µM (inactive) |  | > 100 µM (inactive) |
| COC(=O)C1=C(C(=O)OC)C(N(C)C)C(C(=O)OC)=C(C(=O)OC)S1 | > 100 µM (inactive) | > 100 µM (inactive) | > 100 µM (inactive) |  | > 100 µM (inactive) | 57.1 µM (inactive) | > 100 µM (inactive) | > 100 µM (inactive) | > 100 µM (inactive) | > 100 µM (inactive) | > 100 µM (inactive) | > 100 µM (inactive) | > 100 µM (inactive) | > 100 µM (inactive) | > 100 µM (inactive) | > 100 µM (inactive) |  | > 100 µM (inactive) | > 100 µM (inactive) |
| CCCCc1ccc(N2C(=O)c3cc(C)cnc3S2(=O)=O)cc1 | > 100 µM (inactive) | > 100 µM (inactive) | 43.1 µM (inactive) | > 100 µM (inactive) | > 100 µM (inactive) | > 100 µM (inactive) | > 100 µM (inactive) | > 100 µM (inactive) | > 100 µM (inactive) | > 100 µM (inactive) | 97.5 µM (inactive) | > 100 µM (inactive) | > 100 µM (inactive) | > 100 µM (inactive) |  | > 100 µM (inactive) |  | 63.2 µM (inactive) | > 100 µM (inactive) |
| Cc1c(O)nc(-n2[nH]c3c(c2=O)CCCC3)[nH]c1=O | > 100 µM (inactive) | > 100 µM (inactive) | > 100 µM (inactive) | > 100 µM (inactive) | > 100 µM (inactive) | > 100 µM (inactive) | > 100 µM (inactive) |  | > 100 µM (inactive) | > 100 µM (inactive) | > 100 µM (inactive) | > 100 µM (inactive) | > 100 µM (inactive) | > 100 µM (inactive) | > 100 µM (inactive) |  |  | > 100 µM (inactive) | > 100 µM (inactive) |
| COc1ccc(C)cc1NC(=S)N/N=C/c1ccco1 | > 100 µM (inactive) | > 100 µM (inactive) | 66.7 µM (inactive) | 35.8 µM (inactive) | 18.9 µM (inactive) | 34.1 µM (inactive) | 31.4 µM (inactive) | 49.2 µM (inactive) | 37.3 µM (inactive) | 43.4 µM (inactive) | 56.1 µM (inactive) | 60.8 µM (inactive) | 99.3 µM (inactive) | 36.5 µM (inactive) |  | 4.94 µM (inactive) | 27.6 µM (inactive) | > 100 µM (inactive) | 21.4 µM (inactive) |
| CN(C)c1ccc(/N=C2/NC(=N\c3ccccc3)/C(=N/c3ccccc3)S2)cc1 | 49.1 µM (inactive) | > 100 µM (inactive) | 30.7 µM (inactive) | > 100 µM (inactive) | > 100 µM (inactive) | > 100 µM (inactive) | > 100 µM (inactive) | > 100 µM (inactive) | 66.5 µM (inactive) | > 100 µM (inactive) | > 100 µM (inactive) | > 100 µM (inactive) | 87.3 µM (inactive) | > 100 µM (inactive) | 62.4 µM (inactive) | 19.9 µM (inactive) | > 100 µM (inactive) | 48.9 µM (inactive) |  |
| COc1cc(OC)cc(-n2c(N)c(-c3nc4ccccc4n3C)c3ccc([N+](=O)[O-])cc3c2=O)c1 | 83.4 µM (inactive) | > 100 µM (inactive) | 26.4 µM (inactive) |  | 35.6 µM (inactive) | > 100 µM (inactive) | 33.8 µM (inactive) |  | 32 µM (inactive) | > 100 µM (inactive) | 55.5 µM (inactive) | > 100 µM (inactive) | 40.6 µM (inactive) | > 100 µM (inactive) | > 100 µM (inactive) |  |  |  | > 100 µM (inactive) |
| N#Cc1c(O)c(/N=N/c2ccccc2F)c(=O)n2c1[nH]c1ccccc12 | 34 µM (inactive) | 42.4 µM (inactive) | 15.4 µM (inactive) | 74.8 µM (inactive) |  | 32.6 µM (inactive) | 50 µM (inactive) | 36 µM (inactive) | 39.3 µM (inactive) | 30.3 µM (inactive) | 32.4 µM (inactive) | 29.4 µM (inactive) | 48.1 µM (inactive) | 63.2 µM (inactive) | 55.6 µM (inactive) | 32.7 µM (inactive) | > 100 µM (inactive) | 50.5 µM (inactive) |  |
| O=C1CCC2(c3ccc(F)cc3)Nc3ncncc3N12 (configuration not stated) | > 10 µM (inactive) | > 10 µM (inactive) | > 10 µM (inactive) | > 10 µM (inactive) | > 10 µM (inactive) | > 10 µM (inactive) | > 10 µM (inactive) | > 10 µM (inactive) | > 10 µM (inactive) | > 10 µM (inactive) | > 10 µM (inactive) |  | > 10 µM (inactive) | > 10 µM (inactive) | > 10 µM (inactive) | 2.32 µM (inactive) | > 10 µM (inactive) |  |  |
| Cc1cc(S(=O)(=O)n2ccnc2Oc2ccccc2)c(SSc2cc(Cl)c(C)cc2S(=O)(=O)n2ccnc2Oc2ccccc2)cc1Cl |  | 74.1 µM (inactive) | 1.95 µM (inactive) | 42.6 µM (inactive) | > 100 µM (inactive) | > 100 µM (inactive) | 43.4 µM (inactive) | > 100 µM (inactive) | > 100 µM (inactive) | > 100 µM (inactive) | 59.6 µM (inactive) | > 100 µM (inactive) | > 100 µM (inactive) | > 100 µM (inactive) | > 100 µM (inactive) | > 100 µM (inactive) | > 100 µM (inactive) | > 100 µM (inactive) | > 100 µM (inactive) |
| Cc1ccc(C2=Nc3c(N)nc(N)nc3NC(c3ccccc3)C2)cc1 (configuration not stated) | 15.1 µM (inactive) | 14.8 µM (inactive) | 13 µM (inactive) | 7.16 µM (inactive) |  | 12.4 µM (inactive) | 4.34 µM (inactive) | 11.8 µM (inactive) | 14 µM (inactive) | 10.5 µM (inactive) | 14.9 µM (inactive) | 12 µM (inactive) | 13.4 µM (inactive) | 4.16 µM (inactive) | 14.4 µM (inactive) | 7.69 µM (inactive) | 12.1 µM (inactive) | 13.9 µM (inactive) | 7.01 µM (inactive) |
| COc1ccc2[nH]c3ccc4cc[n+](CCN5CCC(C6CCN(CC[n+]7ccc8ccc9[nH]c%10ccc(OC)cc%10c9c8c7)CC6)CC5)cc4c3c2c1 | 0.18 µM (active) | 21.4 µM (inactive) | 33 µM (inactive) | 0.352 µM (active) | 0.818 µM (active) |  | 19.5 µM (inactive) | > 62.1 µM (inactive) | 0.405 µM (active) | 31 µM (inactive) | 1.97 µM (inactive) | 1.88 µM (inactive) | 1.38 µM (inactive) | 0.316 µM (active) | 21.4 µM (inactive) |  | 2.65 µM (inactive) | 6.37 µM (inactive) |  |
